Patent US20090196854A1, “METHODS AND COMPOSITIONS FOR USE OF CRL 5803 CELLS FOR EXPRESSION OF BIOTHERAPEUTICS AND ENCAPSULATED CELL-BASED DELIVERY” (priority 2008, published 2009)
Where two headings read alike, the source gives them in different places.

What was measured:
HT1080 cells (CD clone) = test: 5FC sensitivity of cells expressing WT CD gene; format: cell-based, human
Description: HT1080 cells and CD Expression, The HT1080 cell line was obtained from the ATCC and transfected with the WT CD gene of the present invention. A clone was isolated that had high expression of immunoreactive CD. […] This represents toxicity at about 100-fold lower concentrations of 5FC than achieved by others with HT1080 cells (Dachs, et al., Nature Medicine 3:515-20, 1997).

[1] = tested on: human kidney cells 293 cells; test: 5FC sensitivity of cells expressing WT-CD transgene; format: cell-based; conditions: HEK293, 293 cells expressing WT-CD transgene
human colon tumor cells = test: as above; format: cell-based
CRL5816 cells = test: as above; format: cell-based; conditions: Homo sapiens
ARPE-19 cells = test: 5FC sensitivity of cells transfected with CD gene; format: cell-based, human; conditions: ARPE-19 transfected with CD gene
Description: ARPE-19 and CD Expression. […] The purpose of the screen was to eliminate 5FU-resistant cells with the expectation that it would be difficult to use CD as a kill system in such cells. We conclude that lack of cytotoxicity with CD transgene and 5FC treatment in these cells is, at least in part, due to the insensitivity of these cells to 5FU cytotoxicity. The 5-FC and CD cell suicide safety system may not readily be an effective safety system with ARPE-19 cells.

K3.31 = test: 5FC and 5FU dose-response in BDNF-expressing CRL 5803 line and CD transfectants; format: cell-based; conditions: Homo sapiens; K3.31 transfected with CD gene; read-out: 5FC IC50
Protocol: (§1) CRL 5803 cells expressing BDNF and CD: The CRL 5803 cell line was transfected with BDNF and clones expressing BDNF were selected. These selected clones were expanded to provide cells for transfections with cytosine deaminase plasmid (CX014). Four CD gene transfection studies were performed with three different BDNF-expressing cell lines. For each cell line at least 24 resistant clones were picked and screened for sensitivity to 100 μM 5FC. The clones with the lowest survival in 5FC (as percent of control wells) were then expanded for dose-response studies with 5FC and 5FU. Cytotoxicity of 5FC was used as an indication of CD gene expression, and this screen provided 6-9 clones per transfection. The IC50 for 5FU indicated the maximum potential cytotoxicity of the prodrug, 5FC, in cells expressing sufficient levels of CD gene and protein.

K3.3 = test: as above; format: cell-based; conditions: Homo sapiens; K3.3 transfected with CD gene; read-out: 5FC IC50
Protocol: as §1

K3.4 = test: as above; format: cell-based; conditions: Homo sapiens, read-out: 5FC IC50
Protocol: as §1

ARPE-19 = format: cell-based, human
Protocol: (§2) The cell lines were plated in 48 well plates at an appropriate dilution of cells for each cell line to provide for rapid entry into log phase of growth. The various concentrations of the selection drugs were added so that the drugs were present at the initiation of log phase growth and viable cells were determined after 7-10 days of culture. The screening used data for functional mass at the end of the study to express viable cells as a percentage of the vehicle, or no-treatment control wells. […] The % viable cell mass data was plotted, and fitted typically with a four-parameter equation. The fitted equation was used to calculate the IC50 dose. The drugs tested were G418 (inactivated by neomycin phophotransferase, NPT), hygromycin (inactivated by hygromycin phosphotansferse, HPT), blasticidin (inactivated by blasticidin deaminase, BSD), and zeocin (bound by bleomycin binding protein, BBP). These antibiotics were obtained from Invitrogen/Gibco (Invitrogen SA, Barcelona).
(§3) The drugs, G418, Zeocin, hygromycin, and blasticidin were obtained and used as described earlier. The most important aspect of these studies was to identify the concentration needed to kill all non-transfected cells.

CCL205 = format: cell-based, human
Protocol: as §2, §3

CRL1440 = format: cell-based, human
Protocol: as §2, §3

CRL5803 = format: cell-based, human
Protocol: as §2, §3

ARPE-19 polyclone = test: Zeocin dose-response of growth in BBP-transfected polyclones; format: cell-based, human
CCL205 polyclone = conditions: CMV promoter polyclone
Protocol: (§4) In an effort to address this issue we used plasmids we had constructed that used either of three viral promoter/enhancers: CMV, SV40, or RSV. These viral regulatory elements were used to direct the expression of the selectable marker for Zeocin, a bleomycin binding protein (BBP) that inactivates the drug by binding, rather than enzymatic degradation. The resistant colonies produced by these transfections were grown as polyclones for each different promoter.
The growth of CCL205 cells was slow enough that for IC50 calculations the final viable mass was used rather than growth.

CRL1440 polyclones = test: Zeocin dose-response of growth in BBP-transfected polyclones
Protocol: as §4
Polyclones were expanded in 300 μg/ml Zeocin for SV40 and CMV promoter plasmids, and then plated to determine IC50s for growth at varied Zeocin doses.

Protocol for CRL 5803 polyclones: as §4

## Nc1nc(=O)[nH]cc1F [5FC, 5-fluorocytosine]
HT1080 cells (CD clone); Homo sapiens, HT-1080, HT1080 clone with high expression of immunoreactive CD, dominantly growth arrest
  IC50: 110 µM
HT1080 cells (CD clone); versus Dachs et al. 1997
  fold lower toxic concentration of 5FC than achieved by others with HT1080 cells: about 100 fold
[1]
  IC50: 55 µM
Human colon tumor cells
  IC50: 45 µM
CRL5816 cells
  IC50: 48 µM
ARPE-19 cells
  sensitivity of CD-transfected clones to 5FC: unable to isolate clones that were sensitive to 5FC
K3.31
  IC50: 21 ± 2 µM
K3.3
  IC50: 14 ± 2 µM
K3.4; independent second transfection with the CD gene
  IC50: 67 ± 8 µM
K3.4; one of the transfections with the CD gene
  IC50: 79 ± 9 µM

## Cc1c(N)nc([C@H](CC(N)=O)NC[C@H](N)C(N)=O)nc1C(=O)N[C@H](C(=O)N[C@H](C)[C@@H](O)[C@H](C)C(=O)N[C@H](C(=O)NCCC1=N[C@@H](c2nc(C(=O)NCCCCN=C(N)N)cs2)CS1)[C@@H](C)O)[C@@H](O[C@@H]1O[C@@H](CO)[C@@H](O)[C@H](O)[C@@H]1O[C@H]1O[C@H](CO)[C@@H](O)[C@H](OC(N)=O)[C@@H]1O)c1cnc[nH]1 [Zeocin]
ARPE-19
  concentration found to kill non-transfected cells: 50 µg/mL
CCL205
  concentration found to kill non-transfected cells: <20 µg/mL
CRL1440
  concentration found to kill non-transfected cells: 100 µg/mL
CRL5803
  concentration found to kill non-transfected cells: 500 µg/mL
ARPE-19 polyclone; CMV promoter
  shift in resistance compared to cells with no Zeocin-resistance gene: ~8 fold
ARPE-19 polyclone; CMV promoter-BBP polyclone
  IC50 for growth in Zeocin: 399 µg/mL
CRL 5803 polyclones; CRL 5803, CMV promoter-BBP
  growth IC50 in Zeocin: 2700 µg/mL
CRL 5803 polyclones; CRL 5803, RSV promoter-BBP
  growth IC50 in Zeocin: 2400 µg/mL
CRL 5803 polyclones; CRL 5803, SV40 promoter plasmid
  growth IC50 in Zeocin: 2800 µg/mL
CRL 5803 polyclones; CRL 5803, all promoters
  increase in the growth IC50: ~5 fold
CRL 5803 polyclones; CRL 5803 CMV promoter polyclone, dose range extended to 5000 μg/ml
  doses at which cytotoxicity was evident: > 3000 µg/mL
CCL205 polyclone
  IC50 for Zeocin (final viable mass): 27 µg/mL
CRL1440 polyclones; CMV plasmids
  IC50 for growth in Zeocin: 2395 µg/mL
CRL1440 polyclones; SV40 promoter plasmid
  IC50 for growth in Zeocin: 959 µg/mL
